Experimental data as given in US20130059830A1, “NOVEL PROLYLCARBOXYPEPTIDASE INHIBITORS” (priority 2010, published 2013).

Molecular target: T1, human PrCP (Homo sapiens, UniProt P42785)
T1 construct: made in house
T1 sequence (P42785 46-496): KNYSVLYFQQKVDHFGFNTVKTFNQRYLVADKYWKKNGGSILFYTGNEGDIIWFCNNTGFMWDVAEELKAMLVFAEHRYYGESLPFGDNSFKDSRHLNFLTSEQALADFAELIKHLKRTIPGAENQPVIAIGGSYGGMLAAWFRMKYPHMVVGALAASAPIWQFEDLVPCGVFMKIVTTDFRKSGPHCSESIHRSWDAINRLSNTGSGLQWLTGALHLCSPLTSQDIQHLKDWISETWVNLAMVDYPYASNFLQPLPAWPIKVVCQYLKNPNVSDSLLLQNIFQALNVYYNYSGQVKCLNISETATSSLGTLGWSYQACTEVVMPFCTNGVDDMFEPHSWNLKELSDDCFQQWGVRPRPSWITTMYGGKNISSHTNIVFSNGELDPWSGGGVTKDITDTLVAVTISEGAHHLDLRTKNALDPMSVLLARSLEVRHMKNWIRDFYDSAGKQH
Assay: Prolylcarboxypeptidase (PRCP) enzyme activity assay, fluorescence intensity kinetic assay, human enzyme
Type: biochemical
Conditions: recombinant human PrCP, 15 uM substrate, pH 5.5, 37° C.
Protocol: The potency of compounds of formula I against PrCP was determined by a fluorescence intensity kinetic assay measuring the IC50 values of PrCP inhibitor test compounds. […] The assay was run on a Perkin Elmer Envision 2103 plate reader using a 320 nm excitation filter and a 405 emission filter. The assay was performed using a Hamilton Star liquid handling workstation. The assay employed the internally quenched fluorescent substrate (1S)-1-carboxy-5-[(2,4-dinitrophenyl)amino]pentyl N-[(7-methoxy-2-oxo-2H-chromen-4-yl)acetyl]-L-alanyl-L-prolinate prepared in house.
The assay was run in a 384-well microtiter plate at 37° C. with a total volume of 50 uL. Final assay concentrations were 0.13 nM human PrCP (CHO) or 0.09 nM mouse PrCP (CHO) enzyme, 15 uM substrate and varying concentrations of inhibitor in buffer containing 10 mM NaOAc, 100 mM NaCl and 19.5 ug/mL BSA at pH 5.5. The assay also contained 2% DMSO used to solubilize the substrate and inhibitor. Inhibitors were prepared in 100% DMSO and serial diluted (in 100% DMSO) to generate 11 point titration curves. Either 39 uL of human or mouse PrCP enzyme was added to the wells of the assay plate, followed by a 1 uL addition of the serially diluted inhibitor and mixed three times using a 30 uL mix volume. The reaction was initiated by the addition of 10 uL substrate and mixed three times using a 30 uL mix volume. The reactions were monitored continuously over 25 min at 37° C. to obtain initial velocities. […] values were calculated by comparing the resulting rates of reaction of the inhibited and control initial velocities.
The enzymes were diluted in a mixture of 10 mM NaOAc (pH 5.5)/100 mM NaCl buffer containing 25 ug/mL bovine serum albumin that had been warmed to 37° C. in a water bath. The PrCP inhibitor test compounds were plated in 100% DMSO with a highest concentration of 500 uM. There were 12 dilution points for each compound tested including a blank with DMSO only. The test compounds from the source titration plate were transferred into the assay reaction plate at a 1:50 dilution using the Hamilton Star workstation and mixed, resulting in a final concentration for the test compounds in the range of 10,000 to 0.066 nM. Likewise, two control compounds were similarly titrated and included in each assay, with final starting concentrations starting at 10,000 nM and 200 nM, respectively. The reaction was initiated by the addition of 75 uM of the (1S)-1-carboxy-5-[(2,4-dinitrophenyl)amino]pentyl N-[(7-methoxy-2-oxo-2H-chromen-4-yl)acetyl]-L-alanyl-L-prolinate substrate, which was diluted in a mixture of 10 mM NaOAc (pH 5.5)/100 mM NaCl that had been warmed to 37° C. in a water bath, dispensed using the Hamilton Star workstation and mixed. The substrate was solubilized in 100% DMSO prior to dilution into the assay. The final assay concentrations in the 50 uL reactions were 15 uM of (1S)-1-carboxy-5-[(2,4-dinitrophenyl)amino]pentyl N-[(7-methoxy-2-oxo-2H-chromen-4-yl)acetyl]-L-alanyl-L-prolinate substrate, 0.13 nM Human PrCP (CHO) or 0.09 nM Mouse PrCP (CHO), and 2% DMSO.

Row | Compound | IC50
1 | O=C(NCCc1ccc(F)cc1)N1CCCC(c2cc(-c3ccc(F)cc3)nn2-c2ncccn2)C1 (stereo not shown) [Example 82] | 27 nM
2 | O=C(Cc1ccccc1C(F)(F)F)N1CCCC(c2cc(-c3ccc(F)cc3)nn2-c2ncccn2)C1 (stereo not shown) [Example 20] | 0.65 nM
3 | O=C(CC1CCCCC1)N1CCCC(c2cc(-c3ccc(F)cc3)nn2-c2ncccn2)C1 (stereo not shown) [Example 36] | 30 nM
4 | CNC(=O)N1C[C@@H](c2cc(-c3ccc(F)cc3)nn2-c2ncccn2)CC[C@@H]1c1ccccc1 (mixture of isomers) [Example 95] | 10 nM
5 | CC(C)(C)OC(=O)N1C[C@H](c2cc(-c3ccc(F)cc3)nn2-c2ncccn2)CC[C@@H]1CCc1ccccc1 (racemic) [Example 5, tert-Butyl 5-[3-(4-fluorophenyl)-1-(pyrimidin-2-yl)-1H-pyrazol-5-yl]-2-(2-phenylethyl)piperidine-1-carboxylate] | 8 nM
6 | Fc1ccc(-c2cc([C@H]3CC[C@H](c4ccccc4)NC3)n(-c3ncccn3)n2)cc1 (mixture of isomers) [Example 4] | 4.1 nM
7 | O=S(=O)(CCC(F)(F)F)N1CCCC(c2cc(-c3ccc(F)cc3)nn2-c2ncccn2)C1 (stereo not shown) [Example 109] | 4.5 nM
8 | O=C(Cc1cccc2ccccc12)N1CCCC(c2cc(-c3ccc(F)cc3)nn2-c2ncccn2)C1 (stereo not shown) [Example 17] | 1.2 nM
9 | Clc1ccc(-c2cc(C3CNC(CCc4ccccc4)CO3)n(-c3ncccn3)n2)cc1 (single isomer, unassigned) [Example 8, 2-[3-(4-Chlorophenyl)-1-(pyrimidin-2-yl)-1H-pyrazol-5-yl]-5-(2-phenylethyl)morpholine] | 12 nM
10 | COC(=O)N1C[C@@H](c2cc(-c3ccc(Cl)cc3)nn2-c2ncccn2)CC[C@@H]1c1ccccc1 (mixture of isomers) [Example 13] | 1.3 nM
11 | Fc1ccc(-c2cc([C@@H]3CC[C@H](CCc4ccccc4)NC3)n(-c3ncccn3)n2)cc1 (racemic) [Example 6, 2-{3-(4-Fluorophenyl)-5-[6-(2-phenylethyl)piperidin-3-yl]-1H-pyrazol-1-yl}pyrimidine] | 2.1 nM

System: rats
Assay: not given
Conditions: intracerebroventricular; cited from earlier work

Row | Compound | overnight food intake
12 | t-butyl carbamate-prolyl prolinal [BPP] | suppression of overnight food intake

System: obese, leptin deficient mice
Assay: not given
Conditions: systemic administration; cited from earlier work

Row | Compound | overnight food intake
13 | t-butyl carbamate-prolyl prolinal [BPP] | suppression of overnight food intake
